Broadly, the TGI is the concentration at which net growth stops. A lower TGI goes with greater sensitivity of the cells.

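Values below derive from 48-hour exposures of cells grown in 96-well plates, with endpoints linearly interpolated between the two concentrations bracketing the appropriate inhibition level. TGI: concentration producing complete growth inhibition.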 Where a SMILES comes first, the peptide text is derived from it.

Among the test systems are SR leukemia; IGROV1 ovarian; MDA-MB-435; EKVX NSCLC; DU-145 prostate; SK-MEL-2 melanoma; RPMI-8226 leukemia; BT-549 breast; NCI-H460 lung; CAKI-1 renal; RXF 393 renal; HOP-62 NSCLC.
Common to all, as to assay: DTP human tumour cell line panel, 48 h

Regarding `CN(Nc1cc(=O)[nH]c(=O)[nH]1)c1ccccc1`, the TGI in the assay with SR leukemia, in the assay with IGROV1 ovarian, in the assay with MDA-MB-435, with EKVX NSCLC, in the assay with DU-145 prostate and in the assay on SK-MEL-2 melanoma was > 100 µM in each case. The TGI in the assay on RPMI-8226 leukemia, in the assay with BT-549 breast, in the assay with NCI-H460 lung, with CAKI-1 renal, with RXF 393 renal and in the assay with HOP-62 NSCLC was > 100 µM each time.

Regarding `NC(CCC(=O)NC(CSC(=O)N(O)c1ccc(Br)cc1)C(=O)NCC(=O)O)C(=O)O` (stereo not given), the TGI in the assay with SR leukemia is > 100 µM; with IGROV1 ovarian, > 100 µM; with MDA-MB-435, > 50 µM; in the assay on EKVX NSCLC, > 100 µM; in the assay on DU-145 prostate, > 50 µM; in the assay with SK-MEL-2 melanoma, > 100 µM. The TGI in the assay with RPMI-8226 leukemia is > 100 µM; in the assay on BT-549 breast it was > 50 µM; in the assay on NCI-H460 lung it was > 100 µM; with CAKI-1 renal, > 100 µM; in the assay with RXF 393 renal it was > 100 µM; in the assay with HOP-62 NSCLC it was > 100 µM.

Regarding `COC(=O)C1=C(C)NC(C)=C(C(=O)OC)C1c1ccc(/[N+]([O-])=C/c2ccccc2)cc1`, the concentration for total growth inhibition (TGI) is 80 µM in the assay on SR leukemia; > 100 µM in the assay on IGROV1 ovarian; > 100 µM in the assay with MDA-MB-435; > 100 µM in the assay with EKVX NSCLC; > 100 µM in the assay on DU-145 prostate; > 100 µM in the assay on SK-MEL-2 melanoma. In addition, the TGI in the assay with RPMI-8226 leukemia was > 100 µM; in the assay on BT-549 breast, 40.1 µM; with NCI-H460 lung it was > 100 µM; in the assay with CAKI-1 renal it was 35 µM; in the assay with RXF 393 renal it was 41.1 µM; in the assay with HOP-62 NSCLC, > 100 µM.

Turning to `C/C(=N\Nc1cc(CN2CCCC2)c(-c2ccc(Cl)cc2)nn1)C(=O)O`, the TGI in the assay on SR leukemia, in the assay with IGROV1 ovarian, in the assay on MDA-MB-435, with EKVX NSCLC, with DU-145 prostate and in the assay with SK-MEL-2 melanoma was > 100 µM in each case. Further, the TGI with RPMI-8226 leukemia, in the assay on BT-549 breast, with NCI-H460 lung, in the assay with CAKI-1 renal, with RXF 393 renal and in the assay with HOP-62 NSCLC was > 100 µM throughout.

As for `CN(C)C1=Nc2ccccc2C(=S)N2CSCC12` (stereo not given), the TGI in the assay on SR leukemia was 48 µM; in the assay with IGROV1 ovarian it was 52.3 µM; in the assay on MDA-MB-435 it was > 100 µM; in the assay on EKVX NSCLC, > 100 µM; in the assay on DU-145 prostate it was > 100 µM; in the assay on SK-MEL-2 melanoma it was > 100 µM. Besides, the TGI in the assay on RPMI-8226 leukemia was > 100 µM; with BT-549 breast, > 100 µM; in the assay with NCI-H460 lung, > 100 µM; in the assay with CAKI-1 renal it was 45 µM; in the assay with RXF 393 renal, > 100 µM; in the assay with HOP-62 NSCLC, > 100 µM.

As for `CCC(C)C(NC(=O)C(CCCCN)NC(=O)C(NC(=O)C(CCC(N)=O)NC(=O)C(N)CCCNC(=N)N)C(C)CC)C(=O)NC(Cc1c[nH]c2ccccc12)C(=O)NC(Cc1ccccc1)C(=O)NC(CCC(N)=O)C(=O)NC(CC(N)=O)C(=O)NC(CCCNC(=N)N)C(=O)NC(CCCNC(=N)N)C(=O)NC(CCSC)C(=O)NC(CCCCN)C(=O)NC(Cc1c[nH]c2ccccc12)C(=O)NC(CCCCN)C(=O)NC(CCCCN)C(=O)N1CCCC1C(=O)NC(C)C(=O)NC(CCCCN)C(=O)NC(CCCNC(=N)N)C(=O)NC(CCCCN)C(=O)NC(CC(C)C)C(=O)NC(Cc1ccccc1)C(=O)NCC(=O)O` (stereo not given) (H-RQIKIWFQNRRMKWKKPAKRKLFG-OH; configuration not given here), the TGI in the assay on SR leukemia, in the assay on IGROV1 ovarian, in the assay on MDA-MB-435, in the assay on EKVX NSCLC, in the assay with DU-145 prostate and in the assay on SK-MEL-2 melanoma was > 25 µM each time. The TGI with RPMI-8226 leukemia is 15.1 µM; in the assay with BT-549 breast, > 25 µM; with NCI-H460 lung, > 25 µM; in the assay on CAKI-1 renal, > 25 µM; in the assay with RXF 393 renal it was > 25 µM; with HOP-62 NSCLC it was > 25 µM.

Take `CCC1c2[nH]c3ccccc3c2C[C@H]2C(=O)NC(COC(C)(C)C)C(=O)N12` (stereo not given in full): the TGI with SR leukemia was > 100 µM; with IGROV1 ovarian, > 100 µM; in the assay with MDA-MB-435 it was > 100 µM; in the assay with EKVX NSCLC, > 100 µM; with DU-145 prostate it was > 100 µM; with SK-MEL-2 melanoma it was 85 µM. The TGI in the assay with RPMI-8226 leukemia, in the assay on BT-549 breast, in the assay on NCI-H460 lung, in the assay with CAKI-1 renal, with RXF 393 renal and in the assay with HOP-62 NSCLC was > 100 µM each time.

`Cc1ccc(S(=O)(=O)C2=Cc3ccc(C(F)(F)F)cc3C2(O)c2cccc(C(F)(F)F)c2)cc1` (stereo not given): the TGI in the assay with SR leukemia is 8.14 µM; in the assay on IGROV1 ovarian, 7.03 µM; in the assay on MDA-MB-435, 4.28 µM; with EKVX NSCLC it was 9.83 µM; with DU-145 prostate it was 10.3 µM; with SK-MEL-2 melanoma it was 3.57 µM. The TGI is > 23 µM in the assay with RPMI-8226 leukemia; 5.22 µM in the assay on BT-549 breast; 6.9 µM in the assay on NCI-H460 lung; 14.6 µM in the assay on CAKI-1 renal; 6.26 µM with RXF 393 renal; 18.8 µM in the assay on HOP-62 NSCLC.

As to `C=CCNC1=C2C[C@@H](C)C[C@@H](OC)[C@@H](OC(=O)CCCN)[C@H](C)/C=C(\C)[C@@H](OC(N)=O)[C@H](OC)/C=C\C=C(/C)C(=O)NC(=CC1=O)C2=O`, the TGI with SR leukemia is > 79 µM; in the assay on IGROV1 ovarian, 30.1 µM; with MDA-MB-435 it was 45.2 µM; in the assay with EKVX NSCLC it was 39.1 µM; in the assay on DU-145 prostate, 38.3 µM; with SK-MEL-2 melanoma, 31 µM. Besides, the TGI in the assay with RPMI-8226 leukemia was 46.9 µM; in the assay with BT-549 breast, 25.7 µM; in the assay on NCI-H460 lung, 59 µM; in the assay with CAKI-1 renal, 35.3 µM; with RXF 393 renal it was 42.2 µM; in the assay on HOP-62 NSCLC, 18.9 µM.

As to `CCN(CC)CCn1nc(N)c2nc3cc(Cl)ccc3nc21`, the TGI is > 100 µM in the assay on SR leukemia; 52.8 µM in the assay with IGROV1 ovarian; > 100 µM in the assay with MDA-MB-435; > 100 µM in the assay on EKVX NSCLC; > 100 µM with DU-145 prostate; > 100 µM with SK-MEL-2 melanoma. Further, the TGI with RPMI-8226 leukemia, with BT-549 breast, in the assay on NCI-H460 lung, with CAKI-1 renal, in the assay with RXF 393 renal and with HOP-62 NSCLC was > 100 µM in each case.
